Assay results reported in publication PMC5793121 (Toxins, 2018).
No end group written: not given here.

What was measured:
male ICR mice = format: in vivo, mouse; conditions: 7-day im 0.15 and 0.5 mg/kg
Experimental: For carrying out these experiments 90 male ICR mice were used, they were divided equally into three groups (30 animals per group) for each study and in these groups they were subdivided into subgroups of 10 mice each and treated as follows: mice of the first subgroup were injected with normal saline im, the second subgroup animals were treated with Az (0.15 mg/kg im) and the animals of the third subgroup were treated with Az (0.50 mg/kg im). The drugs were injected into the quadriceps muscle of the thigh (musculus quadriceps femoris) daily for seven days (1 mL/kg).
On the last 7th day of the Az administration, the mice of the second group (30 animals) were immunized intraperitoneally with a 1:1 mixture of 200 μL of bovine serum albumin (BSA, 0.5 mg/mL) with a complete Freund’s adjuvant. 10 days after the 1st immunization, the mice received the second 200 μL ip injection of the antigen (BSA, 0.5 mg/mL) in an incomplete Freund’s adjuvant (1:1 ratio).

[1] = tested on: hprt gene of CHO-k1 cells
5-HT3 receptors = conditions: concentration up to 10 μM; cited from earlier work

DNWWPKPPHQGPRPPRPRPKP-NH2 [Az, azemiopsin]
immune response to BSA (IgG titers in blood serum) (male ICR mice): did not demonstrate any significant difference | frequency of mutations in the hprt gene ([1]; Az 2.8 to 2000 μg/mL, 4 h, with or without S9, spontaneous 25.2 ± 1.6): 23.5–30.2 × 10^−6 | mutagenic capacity ([1]; Az up to 2000 μg/mL, CHO-k1 cells): did not demonstrate any mutagenic capacity | activity against 5-HT3 receptors (5-HT3 receptors): no activity
